These results are taken from a melting point compilation (Tetko et al.; mined from patent text by program, amines drawn as free bases though some values may be those of a salt).

A word on the melting point: it is the temperature, or range, at which the solid turns liquid. In turn, `O=C(N[C@H]1CC[C@H](CCN2CCN(c3nccc4c3OCC4)CC2)CC1)C(F)(F)F` returned a melting point of 198 °C.

`CCCNC(=O)C(O)C1(O)CCC2C3CCC4=CC(=O)C=CC4(C)C3C(O)CC21C` (configuration not stated): the melting point was 251 to 253 °C.

In turn, `Nc1cnnc(Cl)c1Cl` came in with a melting point of 150 to 151 °C.

Regarding `COc1ccnc(C(=O)N[C@H]2COC[C@H](CC3CCCCC3)[C@@H](OCC(C)C)[C@H](C)OC2=O)c1O`, the melting point lay within 89 to 92 °C.

Consider `Cc1c(CN2CCc3c(c4cccc(F)c4n3C)C2=O)ncn1C`, for which the melting point lay in the range of 174 to 175 °C.

In turn, `CCOC(=O)C1(Nc2ccc(C(O)(C(F)(F)F)C(F)(F)F)cc2)CCC(C(C)(C)C)CC1` (configuration not stated) returned a melting point of 107 °C.

`O=C1NC(=O)C(Cc2ccc(OCCn3cc(C(c4ccccc4)(c4ccccc4)c4ccccc4)c4ccccc43)cc2)S1` (configuration not stated) registered a melting point of 66.6 to 70 °C.

Compound `Cn1c([N+](=O)[O-])cnc1C1=NOC2CCCC12` (configuration not stated) gave a melting point of 89.5 to 91.5 °C.

On to `Cn1ncc(C(=O)N2CCOCC2)c1C(=O)Nc1ccn2nc(-c3ccccc3)nc2c1`, for which the melting point was 203 to 207 °C.

Compound `CN(CC(=O)Nc1ccc2[nH]ncc2c1)Cc1ccccc1` displayed a melting point of 159 to 160 °C.

`Clc1ccc(Oc2ccccc2Oc2ncc(Cl)cn2)nc1` showed a melting point of 108 to 111 °C.

Take `COc1ccc(-c2nc(Sc3ccc(Cl)cc3)cc(N3CCN(C)CC3)n2)cc1`: the melting point lay in the range of 143 to 145 °C.

As to `CC(C)c1ccc(C(=O)NC/C=C/c2ccccc2)cc1`, the melting point came to 142 °C.

`CCCCCCCCCCCCCCCCCCOc1cc(N)cc(NC(C)=O)c1` returned a melting point of 115 to 117 °C.

Consider `CCOC(=O)C1CCCN(C(=O)CCn2cnc3c(=O)[nH]cnc32)C1` (configuration not stated), for which the melting point lay in the range of 171 to 175 °C.

`O=C(Nc1ccc(CN2CCCCC2)cc1)C1=Cc2cc(-c3ccccc3)ccc2CC1` had a melting point of 163 to 164 °C.

As for `CC(C)c1nc(COCc2ccccc2)n(CCO)c1Sc1cc(Cl)cc(Cl)c1`, the melting point is 78 to 80 °C.

The compound `O=[N+]([O-])c1cccc(CSc2nc3cnccc3[nH]2)c1` returned a melting point of 208 to 210 °C.

In turn, `Nc1ccc2c(c1N)CN(Cc1ccc(C(F)(F)F)cc1)CC2` came in with a melting point of 130 to 135 °C.

Consider `NC(=O)c1cc(OC(F)(F)F)ccc1O`, for which the melting point lay within 188 to 190 °C.

Consider `NS(=O)(=O)c1cc(C(=O)O)cc(C(F)(F)F)c1`, for which the melting point was 244 to 246 °C.

In the case of `CC(c1ccc(-c2ccccc2)c(F)c1)c1nc(N)no1` (configuration not stated), the melting point lay in the range of 174 to 175 °C.

Turning to `CC1(C)CC(=O)c2c(C(=O)O)c[nH]c2C1`, the melting point lay within 231 to 232 °C.

Compound `CC(=O)Nc1ccc(C2=NNC(=O)NC2C)cc1Cl` (configuration not stated) registered a melting point of 250 to 252 °C.

In turn, `CC(=O)C(C)Oc1ccc2[nH]c(C)c(C(=O)OCc3ccccc3)c2c1` (configuration not stated) showed a melting point of 94 to 98 °C.

Regarding `Cc1nnc(-c2ccc3occ(-c4ccc(C(=O)O)cc4)c3c2)o1`, the melting point was greater than 300 °C.

The compound `O=C1c2ccccc2C(=O)N1Cc1cc2cc(Cl)cc(Br)c2o1` gave a melting point of 194 to 198 °C.

Compound `Cc1ccc2c(c1)CN(C)C(c1ccc(C(C)(C)C)cc1)C2` (configuration not stated) registered a melting point of 106 to 108 °C.

Regarding `CCCCc1cccn2c(=O)c(-c3nnn[nH]3)cnc12`, the melting point lay in the range of 256 to 258 °C.

The compound `COC(=O)c1cc(-n2cnn(Cc3ccc(F)cc3)c2=O)nn1Cc1ccc(OC)cc1` gave a melting point of 139 to 140 °C.

`CCCc1cc(-c2noc3cc(OC)ccc23)ccc1OC` showed a melting point of 70 to 72 °C.

`CCCNC(=O)Oc1ccc2c(ccn2N(CCC)c2ccncc2)c1` had a melting point of 120 to 122 °C.

`O=C1c2ccc(F)cc2CCc2cccnc21` had a melting point of 116 to 119 °C.

`CC(C)c1nc(CCOC(N)=O)n(Cc2ccncc2)c1Sc1cc(Cl)cc(Cl)c1` had a melting point of 189 to 191 °C.

As for `CCN(CC)CCCCCCCCNc1nc(N)nc(-c2cc(Cl)ccc2Cl)n1`, the melting point is 101 to 102 °C.

On to `CC(C)(C)C(=O)c1c[nH]c2ncc(-c3cccc(OCc4ccccc4)c3)nc12`, for which the melting point lay in the range of 184 to 185 °C.

The compound `CC(C)(C)OC(=O)[C@@H]1CCCN1CC(=O)[C@H](Cc1ccccc1)NC(=O)OCc1ccccc1` showed a melting point of 98 to 99 °C.

`O=c1c2c(N3CCNCC3)cc(Cl)cc2n(Cc2ccccc2)c(=O)n1Cc1ccccc1Cl`: the melting point is 120 to 125 °C.

In the case of `N#CCCNC(=O)C1=CC(CF)(CF)Oc2ccc(C#N)cc21`, the melting point was in the range of 170 to 172 °C.

For the compound `CC(C)c1ccc2c(c1)c(=O)[nH]c1c2c2ccccc2n1C`, the melting point was in the range of 315 to 325 °C.

`CCCCc1nn(C(C)C(=O)NC)c(=O)n1Cc1ccc(-c2ccccc2-c2nnn[nH]2)cc1` (configuration not stated) showed a melting point of 153 to 155 °C.

Compound `CNc1ccc(Oc2nc(OC)cc(OC)n2)c(C(=O)O)n1` came in with a melting point of 172 to 174 °C.

In turn, `Cc1ccc(N)c(C(=S)NCC2CC2)c1` displayed a melting point of 124 °C.

As to `C#Cc1ccc(C(O)C2C(c3ccccc3)CC(=O)N2C)s1` (configuration not stated), the melting point was 187 °C.

For the compound `CCC(Oc1cc(C)ccc1C)C(=O)OC1CC(O)C=C2C=CC(C)C(CCC3CC(O)CC(=O)O3)C21` (mixture of isomers), the melting point lay within 138 to 140 °C.

In turn, `c1ccc(-c2cn3c4c(sc3n2)CCCC4)cc1` yielded a melting point of 158 to 160 °C.

Consider `O=S(=O)(CC(F)(F)F)c1nc2ccccc2[nH]1`, for which the melting point was 172 to 174 °C.

Consider `CCCc1cc(C(=O)NCCC(=O)O)ccc1OC(C(=O)NS(=O)(=O)c1ccc(C(C)C)cc1)c1ccc2c(c1)OCO2` (configuration not stated), for which the melting point is 199 to 201 °C.

In turn, `CN(C)n1cc(C(=O)O)c(=O)c2cc(F)c(Cl)cc21` had a melting point of 255 to 256 °C.

For the compound `CCN(CC)Cc1csc(N)c1C(=O)c1ccc(Cl)cc1`, the melting point fell in the range of 78 to 80 °C.

`O=c1[nH]c2cc(Cl)cc(OCCNCc3cccs3)c2[nH]1` returned a melting point of 179 to 180 °C.

Turning to `COc1cc(CCNC(=O)C(F)(F)F)ccc1[N+](=O)[O-]`, the melting point is 104 °C.

The compound `Cc1ccc(NC(=O)c2ccc(/C=C/C(=O)NO)cc2)cc1Nc1nc(-c2cccnc2)cs1` yielded a melting point of 154 °C.

Take `CC(=O)OC1CSC(Oc2cc(-c3cncnc3)cnc2F)C(OC(C)=O)C1OC(C)=O` (configuration not stated): the melting point fell in the range of 96 to 97 °C.

As for `COc1ccc(-c2ccc(Cl)nn2)c(OCC(O)CNC(C)C)c1` (configuration not stated), the melting point is 128 to 129 °C.

Turning to `Oc1ccc(-c2nnc(CSCCOc3ccccc3)o2)cc1`, the melting point was in the range of 172 to 175 °C.

In turn, `O=Cc1c[nH]c2c1ccc1c2[nH]c2cc(Cl)cc(Cl)c21` yielded a melting point greater than 250 °C.

In turn, `O=c1c2c[nH]c3ccccc3c-2nn1-c1ncccn1` registered a melting point greater than 360 °C.

`O=C(O)c1cc2c(c(C(=O)O)c1)NCCCC2` came in with a melting point of 287 to 288 °C.

Take `CCOC(=O)N1CCC(=C2c3ccc(Cl)cc3CCc3c(On4nnc5ccccc54)ccnc32)CC1`: the melting point was in the range of 182 to 184 °C.

`COc1cc(C)c(C(=O)c2c(OC)cncc2C(F)(F)F)c(OC)c1OC` displayed a melting point of 103 to 106 °C.

Turning to `Brc1ccc(C=Cc2cc3ccccc3s2)s1`, the melting point was 171 to 172 °C.

As to `CCOC(=O)C1CCC(=C(C#N)C(=O)c2ccc(Cl)cc2)N1` (configuration not stated), the melting point was in the range of 108 to 110 °C.

For the compound `COc1ccc(C2Sc3cccc4cccc(c34)N(CCN(C)C)C(=O)C2O)cc1` (configuration not stated), the melting point lay within 121 to 122 °C.

As to `COc1ccc(S(=O)(=O)C2(C(=O)O)CCCN(Cc3ccccc3)C2)cc1` (configuration not stated), the melting point worked out at 133 °C.

`COC(=O)C1(c2ccccc2)CCN(CCNC(=O)N2C(=O)COCC2c2ccc(F)c(F)c2)CC1` (configuration not stated) showed a melting point of 113 to 117 °C.

In turn, `Fc1cccc(F)c1Cn1c(-c2ccccc2)nc2ccccc21` returned a melting point of 163 °C.

On to `O=C(O)Cc1cccc(OCCCN(Cc2cccc(F)c2F)CC(c2ccccc2)c2ccccc2)c1`, for which the melting point worked out at 148 °C.

For the compound `O=C(Nc1cc2ccccc2cn1)c1nccnc1NCc1ccncc1`, the melting point was determined as 139 °C.

Take `Nc1ncc2c(n1)CCC(CNC(=O)[C@@H]1CCCN1C(=O)[C@@H](Cc1ccccc1)NS(=O)(=O)Cc1ccccc1)C2` (some centres not stated): the melting point was in the range of 118 to 121 °C.

On to `O=c1c(Nc2ccc(Cl)cc2)nc2ccccc2n1-c1ccc(Cl)cc1`, for which the melting point fell in the range of 258 to 260 °C.

`Cc1c(C=CC=O)c2c(c(C)c1OCc1ccccc1)CCC(C)(C)O2`: the melting point was 89 to 99.5 °C.

For the compound `Cc1cc2[nH]c(=O)n(C3CCN(CCCN(c4ccc(F)cc4)c4ccc(F)cc4)CC3)c2cc1C`, the melting point lay in the range of 219 to 220 °C.

The compound `CC(C)(C)OC(=O)NCc1ccc(-n2c(-c3cccnc3N)nc3cc(Br)cnc32)cc1` registered a melting point of 129 to 131 °C.

Consider `Cc1ccc(C2(O)CCNCC2)cc1`, for which the melting point is 137 to 138 °C.

In the case of `Cc1ccc(C)c(OCc2ccccc2C(=O)c2ccon2)c1`, the melting point was in the range of 90.5 to 92 °C.

On to `Cc1ccc(C)c(-c2cn(C)cc(-c3cccc(C(F)(F)F)c3)c2=O)c1`, for which the melting point lay in the range of 165 to 167 °C.

Turning to `CCCCCCCCCCc1nnn(CC(=O)Nc2c(C(C)C)cccc2C(C)C)n1`, the melting point was in the range of 108 to 110 °C.

For `CCOC(=O)C(Oc1cccc2[nH]ccc12)C(=O)OCC`, the melting point lay in the range of 52 to 53 °C.

As for `CCCC(=O)Cc1ccc(C(=O)Nc2ccc3cc(CN4CCN(C)CC4)cnc3c2C)cc1`, the melting point amounted to 177 °C.

`Cc1nnc2ccc(-c3cccc(NC=O)c3)nn12` yielded a melting point of 265 to 268 °C.

Regarding `COc1cc(OC(C)C)cc2oc(Sc3ccc(O)cc3)cc(=O)c12`, the melting point lay within 263 to 265 °C.

Compound `CC(C)=CCC/C(C)=C/COc1c(I)c(C)c(I)c(C)c1I` had a melting point of 65 to 66 °C.

Compound `O=S1(=O)CC2(CCCCC2)[C@@H](O)[C@H](c2ccccc2)c2ccccc21` (relative stereo) displayed a melting point of 99 to 100 °C.

`O=C(Nc1ccc(C(F)(F)F)cc1)Nc1ccc2[nH]c(C(F)(F)F)nc2c1` came in with a melting point of 223 to 228 °C.

As for `O=C1C[C@H](O)C[C@@H](/C=C/c2cnc3ccccc3c2-c2cccs2)O1`, the melting point lay within 102 to 104 °C.

`O=C(NCCOc1ccc(-c2noc(=O)[nH]2)cc1)C1Cc2ccccc2N1S(=O)(=O)c1ccc(-c2cccc(C(F)(F)F)c2)cc1` (configuration not stated) registered a melting point of 123 to 130 °C.
